Results on eight compounds are retold here after patent US8841346B2 (Massachusetts Institute of Technology, priority 2009, dated 2014).

In series [1] the test system is C57/BL6 WT mice. Kind of series: Contextual fear conditioning paradigm, memory formation in wild type mice. It counts as in vivo. The conditions noted are these: for memory formation, tested 24 hours after training: 1 mg/kg for 10 days, WT mice, n=20 (FIG. 45B); for memory as measured by % freezing, contextual fear conditioning: HDAC inhibitor injected for 10 days, WT mice (FIG. 26). The method, then:
C57/BL6 WT mice were injected with vehicle or HDAC inhibitor for 10 days.
The total number of mice in each group is indicated in the bottom of each column of FIG. 45A. Mice were subsequently trained with contextual fear conditioning paradigm and tested 24 hours after training. […] After 10 day's dosing, mice were trained with contextual fear conditioning paradigm and tested 24 hours after training.

Series [2] in a line: Solubility study of CI-994 HCl salt in saline. It counts as physicochemical. The method, then:
2. […] Shaken the tube manually. Observation: Solution becomes hazy. 4. Sonicated the above solution of step 3 for 5 minutes. Observation: Solution becomes white colored cloudy solution when 0.9% saline solution was added. […] 5. […] 6. Supernatant clear solution of step 5 was used for analysis.

The test system of series [3] is HDAC isoforms. Briefly: Enzymatic inhibitory activity against known HDAC isoforms. It counts as biochemical, human. The note with it: for time dependent enzymatic inhibitory activity against HDAC isoforms: 1-3 h preincubation. The source says: Comparison was also made to other known memory enhancers and their ability to inhibit the same HDAC enzymes.
For series [4], the system named is HEK293 cells. Briefly: Histone acetylation marks in HEK293 cells, Western blot. The format is cell-based. The note with it: whole HEK293 cells, 10 uM, 6 hour.
For series [5], the system named is TCF/LEF luciferase reporter gene. Kind of series: TCF/LEF luciferase reporter gene in human neural progenitor cells. The format is cell-based. The note with it: read-out: EC50 of TCF/LEF luciferase reporter activation.
Series [6] deals with mice. Briefly: Three-day fear memory extinction trials with reminder shock. The format is in vivo. The note with it: 25 mg/kg. Here is the method:
Two groups of mice were trained in contextual fear conditioning for two times before a three-day-extinction trials. In each extinction day, mice were exposed to the training box without any shock for 3 minutes and returned back to their home-cage. […] The freezing behavior of each mouse in the training cage were monitored. To test the fear memory recovery, a reminder shock was given one hour after the last extinction trial.

The test system of series [7] is Wild type C57/BL6 mice. Kind of series: Fear extinction under normal extinction paradigm. The format is in vivo. The note with it: DCS 15 mg/kg or CI-994 30 mg/kg, 21 minute extinction trial. The source says:
Wild type C57/BL6 mice were trained with contextual fear conditioning paradigms.

The subject of series [8] is mice. Kind of series: Fear extinction under the reconsolidation paradigm. The format is in vivo. The conditions noted are these: for spontaneous recovery of fear memory, freezing one month after initial training: reconsolidation paradigm; for fear extinction, freezing time of first trial in each day: reconsolidation training 4 days, n=20. Here is the method: Mice were trained in contextual fear conditioning paradigm with two shocks. The mice subsequently received the reconsolidation training during the following 4 days. […] One hour after injection, mice were placed back to the same context for 3 minutes. The freezing time of the first trial in each day was measured and plotted.
Spontaneous recovery of the fear memory were tested one month after the initial fear memory training. […] (students t-Test).

Series [9] relates to mice. Briefly: Extinction of fear memory under specific context. It counts as in vivo. The note with it: 30 mg/kg one hour after retrieval, 3 days, n=10. Here is the method: Mice were placed in a novel training box for 3 minutes and received tone for 30 seconds, followed by electrical shocks. […] Twenty-four hours after the second fear conditioning training, mice were exposed to the training chamber (context only) to retrieve the context dependant memory. […] One hour after injection, mice were placed back in the chamber for 3 min for the extinction training. The reactivation-extinction trials were performed once in each day for 3 days and freezing level was measured 5 days after the last training. (n=10 for each group).

In series [10] the test system is WT C57/BL6 mice. Kind of series: Single dose before one 21 minute fear extinction trial. The format is in vivo. Here is the method: The mice were exposed to the fear-associated context for 21 minutes without pairing with shock. Freezing behavior was measured in the first 3 minutes and last 3 minutes during the extinction training, 24 hrs after extinction and 30 days after extinction. (n=20 for each group).

Series [11] deals with mice. Briefly: Extinction of traumatic long-term memories. The format is in vivo. The text has this:
30 days after training, mice were exposed to two 3-min extinction sessions per day in the same context as they were trained. […] 30 days after fear conditioning to both the context (context A) and the cue (3×0.8 mA shock for 2 sec paired with a tone) mice were first exposed to the cue alone in a different context (context B) than the one in which training occurred (context A), and subsequently to two 3-min extinction sessions per day in the same context as they were trained (context A). After the end of this extinction session, mice were again exposed to context B, and their memory tested.

For series [12], the system named is CK-p25 mice. Briefly: Local field potential recording in hippocampus CA1 of CK-p25 mice. It counts as in vivo. The conditions noted are these: 1 mg/kg i.p. 10 days, recorded 10 days after treatment.
Series [13] is described as follows: Maximal solubility of CI-994 free base in solvents, HPLC. The format is physicochemical.
Series [14] relates to HDAC2 overexpression mice.
Method: Mice were trained using contextual fear conditioning paradigm on day 0.
For the memory reconsolidation paradigm, after the fear extinction training as described above, mice were housed in the home cage for one month. Mice were subsequently re-exposed to the conditioning box for 3 min, their freezing behavior measured.
The conditions of series [15]: oral dose level of less than 15 mg/m2 once a day, humans; cited from earlier work.
Series [16] relates to CK-p25 mice. Kind of series: Morris watermaze in CK-p25 mice. The note with it: 1 mg/kg i.p. for 10 days.
Method: All 3 groups of mice were trained with the standard Morris watermaze paradigm for 6 days. Mice were placed in the swimming pool for 60 seconds to search for the hidden platform in each trial. A total of 3 trials were performed in each day with 5 min inter-trial-intervals. The average time each group of mice spent to find the platform is plotted (escape latency).
The two groups of mice were trained in the Morris watermaze paradigm for 7 days as described above. On day 8, platform was removed and mice were tested for memory retrieval. The average time each group of mice spent in the target quadrant is plotted.
Where [17] appears, read: target concentration 5 mg/ml, 0.9% NaCl.

Converted amounts (≈) assume the structure as drawn. “Also recorded” adds a separate entry of the source. Read-outs that look alike come from different tables or passages of the source. Bounds are passed on as bounds.

With `COc1cc2c(cc1OC)C(=O)C(CC1CCN(Cc3ccccc3)CC1)C2` (stereo not drawn) [Aricept, reference compound], the “memory formation, tested 24 hours after training” value in [1] was “did not show any effects in memory formation”.

For the compound `CC(=O)Nc1ccc(C(=O)Nc2ccccc2N)cc1.Cl` [BROAD-SAI-140], in [2], the “improvement in solubility in aqueous solution versus CI-994” value is 35 ×. For the same compound, the “chemical and solution stability, HPLC” value in series [2] (saline solution) was at least 2 h. In series [2] (setting [17]), the “Amount of drug dissolved in mg/ml of saline, 2 hours” value amounted to 2.841 mg/mL and the “Amount of drug dissolved in mg/ml of saline, Initial” value worked out at 2.852 mg/mL.

`CC(=O)Nc1ccc(C(=O)Nc2ccccc2N)cc1` [CI-994, 4-(acetylamino)-N-(2-aminophenyl)benzamide]: in [3], the “enzymatic inhibitory activity against HDAC isoforms (inhibition profile)” value was “primarily Class I HDAC inhibitors” and the “time dependent enzymatic inhibitory activity against HDAC isoforms” value is given as “primarily Class I HDAC inhibitors”. Further, the “enzymatic inhibitory activity against HDAC isoforms (inhibition profile)” value in [3] (listed as CI994) was “inhibits HDAC1, 2 and 3”. Moreover, in series [4], the “acetylation levels over DMSO controls (anti-acetyl H4K12)” value is given as “increased acetylation levels over DMSO controls”. Further, the EC50 in series [5] was about 7 µM. In addition, the “memory formation, tested 24 hours after training” value in series [1] is “significantly increased memory formation”. Also, in series [1] (1 mg/kg, every day and alternate day dosing schedule), the “memory as measured by % time freezing” value is on record as “equally effective”. For the same compound, the “memory as measured by % time freezing” value in [1] (30 mg/kg every day for 10 days) is on record as “improves the memory of mice”. Also, in [1] (30 mg/kg, alternate day dosing schedule), the “memory as measured by % time freezing” value is listed as “equally effective”. For the same compound, the “memory as measured by % time freezing, dose response” value in series [1] (10, 5, and 1 mg/kg every day for 10 days) is “efficacious as a memory enhancer at all doses”. Further, in series [6], the “decay of freezing time before and after injection, extinction day 1” value was “faster decay of freezing time”; the “decay of freezing time before and after injection, extinction day 2” value was “faster decay of freezing time”. In [6] (N=8), the “extinction of fear memory, freezing during first 3-min-exposure in each day” value was “much faster”. Moreover, in series [6] (p<0.05), the “freezing time on the third day” value is “significantly less freezing time than the control group”. For the same compound, the “freezing level 24 hours after the reminder shock” value in [6] (versus control group) was “No significant difference”. Moreover, the “freezing 24 hours after the extinction training” value in series [7] is on record as “showed significant reduction in freezing”. In [8], the “spontaneous recovery of fear memory, freezing one month after initial training” value is reported as “significantly lower freezing level than the vehicle group” and the “fear extinction, freezing time of first trial in each day” value is listed as “significantly facilitated fear extinction”. The “freezing level 5 days after the last training” value in series [9] is recorded as “enhanced extinction of fear memory under specific context”. The “spontaneous recovery of fear memory 30 days after extinction training” value in [10] (one dose i.p. 30 mg/kg) is reported as “not evident”. The “freezing behavior after single extinction exposure” value in series [10] (one dose i.p. 30 mg/kg one hour before 21 minute extinction trial, n=20) was “effective reduction in freezing”. In addition, the “memories formed in a different context (context B)” value in [11] (5 mg/kg (FIG. 49E)) is reported as “did not affect memories formed in a context different from the extinction context”. For the same compound, the “freezing level during extinction sessions 30 days after training” value in series [11] (5 mg/kg, p<0.001 (FIG. 49B)) is “significantly reduced the animals' freezing level”. The “freezing levels 30 days after the last extinction trial” value in series [11] (5 mg/kg, p<0.001 (FIG. 49C)) is on record as “still show reduced freezing levels compared to vehicle-treated ones”. In series [11] (5 mg/kg, p<0.05 (FIG. 49F)), the “freezing level in the extinction context (context A)” value is “exclusively reduced the animals' freezing level in the context in which the extinction had occurred”. In series [11] (5 mg/kg, p<0.05 (FIG. 49G)), the “freezing levels 30 days after last extinction trials, extinguished context” value was “still show reduced freezing levels compared to vehicle-treated ones”. In addition, in series [12], the “LFP oscillation power in area CA1 (theta and gamma band)” value is “significantly increased the oscillation power”. Further, in series [13] (maximal solubility, free base), the “Conc. in Vehicles, DMA” value was 246040 µg/mL; the “Conc. in Vehicles, DMSO” value was found to be 266150 µg/mL; the “Conc. in Vehicles, EtOH” value amounted to 2120 µg/mL; the “Conc. in Vehicles, NMP” value stood at 243280 µg/mL. In series [13] (maximal solubility, free base, 0.9% NaCl, at least 2 h), the “Conc. in Vehicles, Saline” value is 80 µg/mL. Further, the solubility at 2 h in series [13] (saline (0.9% NaCl), saline or isotonic, read-out: Conc. in Vehicles, Saline) came out at 80 µg/mL (≈ 297 µM). The “freezing level after 5 extinction trials” value in series [14] (HDAC2 overexpressing mice, 30 mg/kg i.p., 2 doses) came out at 30%. In addition, the “freezing levels after one month of spontaneous recovery” value in [14] (HDAC2 overexpression mice) is “significantly reduced the freezing levels”. For the same compound, the “fear memory extinction in WT mice” value in series [14] (WT mice, 30 mg/kg i.p.) is “extinct significantly faster than the vehicle treated group”. Besides, in series [15], the “serum AUC, average (variance as percentage of the mean)” value is given as 9500(62.7%) ng·hr/mL and the “serum Cmax, average (variance as percentage of the mean)” value is reported as 570(25.1%) ng/mL. Also, in series [16], the “time spent in the target quadrant, memory retrieval on day 8” value is “rescued the memory retrieval deficits”. The “escape latency (time to find hidden platform)” value in series [16] (6 days training) is recorded as “showed similar learning curve as control mice”.

As to `N[C@@H]1CONC1=O` [DCS, D-cycloserine, reference compound], the “freezing 24 hours after the extinction training” value in [7] is recorded as “showed significant reduction in freezing”. In series [8], the “spontaneous recovery of fear memory, freezing one month after initial training” value is on record as “no significant difference comparing to the vehicle group” and the “fear extinction, freezing time of first trial in each day” value is reported as “but not DCS, significantly facilitated fear extinction”.

As for `Nc1ccccc1NC(=O)c1ccc(CNc2nccc(-c3cccnc3)n2)cc1` [MGCD0103, reference compound], the “memory as measured by % freezing, contextual fear conditioning” value in series [1] is “not efficacious”; in [1] (listed as MGC-D0103), “did not result in improved cognition”.

For the compound `Nc1ccccc1NC(=O)c1ccc(CNC(=O)OCc2cccnc2)cc1` [MS-275, reference compound], in [1], the “memory as measured by % freezing, contextual fear conditioning” value is listed as “not efficacious; also recorded: did not result in improved cognition”.

Take `O=C(CCCCCCC(=O)Nc1ccccc1)NO` [SAHA, reference compound]: the “acetylation levels over DMSO controls (anti-acetyl H4K12)” value in series [4] is “increased acetylation levels over DMSO controls”.

With `Nc1ccc(C(=O)Nc2ccccc2N)cc1` [dinaline], in series [3], the “enzymatic inhibitory activity against HDAC isoforms (inhibition profile)” value is “primarily Class I HDAC inhibitors” and the “time dependent enzymatic inhibitory activity against HDAC isoforms” value is “primarily Class I HDAC inhibitors”.
